Data set [1] relates to hexosaminidase A in ASD fibroblasts. Description: Hexosaminidase activity in adult Sandhoff (ASD) fibroblasts grown with compound. The format is cell-based, human. The following applies: ASD cells. The procedure:
Fibroblast cell lines obtained from homozygous adult onset Tay-Sachs (ATSD), heterozygous adult onset Tay-Sachs (Het ATSD), infantile Tay-Sachs (ITSD and 4917), adult Sandhoff (ASD) and infantile Sandhoff (ISD) were cultured in the presence of various concentrations of ACAS and then examined for hexosaminidase A activity as described above. ACAS treatment gave increased hexosaminidase A activity in ATSD, ASD and ISD cells.

Data set [2] concerns hexosaminidase A in ITSD fibroblasts. Description: MUGS hydrolysis in infantile Tay-Sachs (ITSD) fibroblasts grown with compound. The format is cell-based, human.
Description: Fibroblast cell lines from an unaffected patient (WT, 4212), from a patient diagnosed with the chronic (adult) form of TSD and homozygous for the mutation G269S (ATSD, 1766 or 17662) and from a fetus with the acute (infantile) form of TSD (ITSD, 2317) were grown in a-MEM (Invitrogen) supplemented with 10% FCS, and antibiotics Pen/Strep (Invitrogen) at 37° C. in a CO2 incubator. 17662: A fibroblast cell line (17662) from an adult-onset Tay-Sachs patient homozygous for the most common point mutation associated with the disease, Gly 269 Ser in the α subunit of hexosaminidase A, was obtained from Department of Pediatrics, University of Saskatoon.
The effect of inhibitors on hexosaminidase A activity in fibroblast cells was evaluated using two formats (96- or 6-wells). For the dose response curves and kinetics of increased hexosaminidase A activity in the presence or absence of each compound, cells grown in 96 well tissue culture plates (Falcon) were used. […] Each concentration point of the compounds was evaluated in triplicate.
Following 3-7 days of incubation at 37° C. in the presence or absence of the compound being tested, intracellular hexosaminidase A activity was determined. […] Hexosaminidase A activity in lysates was measured using 25 μL of 3.2 mM MUGS in CP buffer with incubation at 37° for 1 hr. Afterwards, 250 μL of 0.1M 2-amino-2-methyl-1-propanol (pH 10.5) was used to stop the reaction and increase the fluorescence of the methyl umbelliferyl product, Fluorescence was read with a Perkin-Elmer LS50B Luminescence Spectrometer equipped with a sipper and using excitation wavelength of 365 nm and emission wavelength of 450 nm. For dose response and kinetic experiments, the relative increase in hexosaminidase A activity was expressed as the average fluorescence reading from three or four wells, with cells grown in the presence of compound divided by the average fluorescent reading from a minimum of four wells, with cells grown in the absence any compound. […]
In data set [3] the target is T1, hexosaminidase A/S in ISD cells (Homo sapiens, UniProt P06865).
T1 construct: endogenous in cells; host or cells: infantile Sandhoff (ISD) patient fibroblasts
T1 sequence (P06865 89-529): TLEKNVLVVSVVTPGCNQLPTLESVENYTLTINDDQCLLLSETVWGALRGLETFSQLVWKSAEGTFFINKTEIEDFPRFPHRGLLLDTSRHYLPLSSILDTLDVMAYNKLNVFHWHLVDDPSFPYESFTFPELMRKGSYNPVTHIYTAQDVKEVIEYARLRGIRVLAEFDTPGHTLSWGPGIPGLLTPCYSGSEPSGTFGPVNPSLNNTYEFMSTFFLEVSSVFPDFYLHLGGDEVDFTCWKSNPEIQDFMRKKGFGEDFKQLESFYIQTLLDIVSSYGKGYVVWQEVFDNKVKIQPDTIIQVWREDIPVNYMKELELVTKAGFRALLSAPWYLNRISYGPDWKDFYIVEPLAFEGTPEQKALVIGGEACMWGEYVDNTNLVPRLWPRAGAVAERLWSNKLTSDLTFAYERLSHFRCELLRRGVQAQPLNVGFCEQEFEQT
T1 sequence (P06865 23-74 limits assumed): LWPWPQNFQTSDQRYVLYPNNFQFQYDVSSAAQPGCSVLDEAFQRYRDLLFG
Description: Hexosaminidase activity in infantile Sandhoff (ISD) fibroblasts grown with compound. The format is cell-based.
Description: Cells were washed and lysed in Na Phosphate buffer pH 6.1. The lysates were divided into three equal aliquots (25 μl). To each aliquot, 25 μl of either MUGS ( 3.2 mM) or MUP (3 mg/ml) in 20 mM citrate phosphate buffer pH 4.3 was added. Reactions were incubated at 37° C. for 30-60 min. and stopped with 200 μl of 0.1M MAP buffer. Fluorescence was read using Molecular Devices.
Gemini EM MAX with excitation and emission set to 365 nm and 450 nm, respectively. The activity of Hexosaminidase A/S was measured using MUGS hydrolysis and acid phosphatase activity was measured using methylumbelliferyl phosphate (MUP).

For data set [4], the target named is hexosaminidase A in wild type fibroblasts (Homo sapiens, UniProt P06865+P07686). Description: Hexosaminidase A activity (MUGS) in wild type fibroblasts grown with compound. The format is cell-based.
Description: (§1) The effect of inhibitors on hexosaminidase A activity in fibroblast cells was evaluated using two formats (96- or 6-wells). For the dose response curves and kinetics of increased hexosaminidase A activity in the presence or absence of each compound, cells grown in 96 well tissue culture plates (Falcon) were used. To ensure that equal numbers of cells were seeded in each well, trypsinized cells were diluted to give 50% confluence when plated and 200 μL aliquoted into each well of the plate. Cells grown for longer than 5 days were supplemented with fresh medium. […] Each concentration point of the compounds was evaluated in triplicate.
Following 3-7 days of incubation at 37° C. in the presence or absence of the compound being tested, intracellular hexosaminidase A activity was determined. Medium was removed, cells were washed with PBS twice and lysed using 60 μL of 10 mM citrate phosphate buffer pH 4.5 (CP buffer) containing 0.5% human serum albumin and 0.5% Triton X-100. Cells were solubilized at room temperature for 15 min, and subsequently 25 μL of lysate was transferred to a new 96 well plate. Hexosaminidase A activity in lysates was measured using 25 μL of 3.2 mM MUGS in CP buffer with incubation at 37° for 1 hr. Afterwards, 250 μL of 0.1M 2-amino-2-methyl-1-propanol (pH 10.5) was used to stop the reaction and increase the fluorescence of the methyl umbelliferyl product, Fluorescence was read with a Perkin-Elmer LS50B Luminescence Spectrometer equipped with a sipper and using excitation wavelength of 365 nm and emission wavelength of 450 nm. For dose response and kinetic experiments, the relative increase in hexosaminidase A activity was expressed as the average fluorescence reading from three or four wells, with cells grown in the presence of compound divided by the average fluorescent reading from a minimum of four wells, with cells grown in the absence any compound. To control for plate to plate variability, control (untreated) cells were included with each 96 well plate.
Subsequently, hexosaminidase A activity was assayed using a MUGS assay as described above. […]
Data set [5] has as its system fibroblasts from a chronic TSD patient. The following applies: human, 5 days.
Description: as §1
Data set [6] has as its target T2, hexosaminidase from the bacterial species Streptomyces plicatus (Sp. Hex.) (Streptomyces plicatus, UniProt O85361).
T2 sequence (O85361 1-506): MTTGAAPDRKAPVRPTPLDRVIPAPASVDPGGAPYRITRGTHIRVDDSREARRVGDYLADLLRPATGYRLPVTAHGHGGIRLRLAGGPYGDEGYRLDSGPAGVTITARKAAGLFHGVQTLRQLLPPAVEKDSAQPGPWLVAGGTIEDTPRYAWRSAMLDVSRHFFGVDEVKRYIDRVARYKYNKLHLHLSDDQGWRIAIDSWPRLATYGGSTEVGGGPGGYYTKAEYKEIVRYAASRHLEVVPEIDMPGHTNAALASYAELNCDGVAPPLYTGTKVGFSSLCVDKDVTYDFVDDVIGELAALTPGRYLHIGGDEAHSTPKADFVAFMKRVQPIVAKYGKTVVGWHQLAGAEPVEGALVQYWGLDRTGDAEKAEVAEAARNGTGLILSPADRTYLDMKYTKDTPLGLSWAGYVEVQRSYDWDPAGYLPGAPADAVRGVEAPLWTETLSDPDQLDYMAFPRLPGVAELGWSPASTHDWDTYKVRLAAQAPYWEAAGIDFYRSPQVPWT
Conditions: value carries reference superscript 56; cited from earlier work.

The target of data set [7] is human hexosaminidase A (Homo sapiens, UniProt P06865+P07686). Description: Ki on human hexosaminidase A. In kind it is biochemical.
For data set [8], the system named is hexosaminidases A plus B (total Hex). Put plainly: Plasma hexosaminidase A plus B in NGT-treated mice (MUG). In kind it is in vivo. The following applies: CD1 mice, 10, 40 or 100 mg i.p., 2 days later.
Description: (§2) Plasma levels of hexosaminidases A plus B and hexosaminidase A alone were measured by the fluorescent assay described above, using MUG and MUGS as substrates respectively. β-mannosidase was similarly assayed using 4-methylumbelliferyl-β-D-mannopyranoside (MUM) as substrate.
The subject of data set [9] is adult mice. Description: Toxicity studies in adult mice. The format is in vivo.
The subject of data set [10] is hexosaminidase A plus B. Put plainly: Brain hexosaminidase A plus B in NGT-treated mice. The format is in vivo. The following applies: 40 mg s.c. every 4 days for 15 days.
The target in data set [11] is T3, hexosaminidase B (Homo sapiens, UniProt P07686).
T3 construct: from tissue; host or cells: human placenta
Put plainly: Denaturation of hexosaminidase B by guanidine hydrochloride. In kind it is biochemical.

Data set [12] concerns the target T3, hexosaminidase B. Description: Heat denaturation of hexosaminidase B at 60° C. In kind it is biochemical. Conditions: 60° C. up to 40 minutes, 2.4 μm NAG-thiazoline, MUG.
Description: The effect of NAG-thiazoline on heat denaturation of human hexosaminidase B was also examined. The enzyme was incubated at 60° C. for up to 40 minutes in the presence or absence of 2.4 μm NAG-thiazoline and its activity was then assayed as described above using MUG as substrate.
Data set [13] has as its system β-mannosidase. Description: Serum/plasma β-mannosidase in NGT-treated mice (MUM). The format is in vivo.
Description: as §2
The target in data set [14] is T2, hexosaminidase from the bacterial species Streptomyces plicatus (Sp. Hex.). Description: Ki on bacterial hexosaminidase (MUG assay). The format is biochemical.
Setting [15] is: adult male CD1 mice, 40 mg/mouse i.v. or s.c. every four days up to 30 days.

Data on 5 compounds can be found in patent US20070066543A1, “Treatment of tay sachs or sandhoff diseases by enhancing hexosaminidase activity” (The Hospital For Sick Children, priority 2003, published 2007).

SMILES strings stand for the structures. Where two headings read alike, the source gives them in different places. Where only a bound is given, the exact number is not on record here.

Sequence of hexosaminidase A in wild type fibroblasts (P07686 315-556 limits assumed, one chain of several): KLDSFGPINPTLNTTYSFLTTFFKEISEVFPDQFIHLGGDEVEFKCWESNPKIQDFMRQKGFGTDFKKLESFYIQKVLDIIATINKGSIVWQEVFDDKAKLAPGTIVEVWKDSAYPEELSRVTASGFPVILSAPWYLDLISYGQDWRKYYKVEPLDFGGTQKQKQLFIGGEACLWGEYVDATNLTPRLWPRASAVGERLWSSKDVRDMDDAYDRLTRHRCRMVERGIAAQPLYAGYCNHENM
Sequence of hexosaminidase A in wild type fibroblasts (P07686 122-311 limits assumed, one chain of several): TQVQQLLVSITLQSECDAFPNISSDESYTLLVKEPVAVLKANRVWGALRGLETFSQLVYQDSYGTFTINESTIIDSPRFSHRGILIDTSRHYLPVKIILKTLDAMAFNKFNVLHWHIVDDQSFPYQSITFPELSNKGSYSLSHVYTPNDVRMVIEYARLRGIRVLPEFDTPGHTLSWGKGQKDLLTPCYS
Sequence of hexosaminidase A in wild type fibroblasts (P07686 50-107 partner limits assumed, one chain of several): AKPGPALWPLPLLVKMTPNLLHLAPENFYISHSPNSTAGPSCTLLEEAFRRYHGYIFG
Sequence of human hexosaminidase A (P07686 315-556 limits assumed, one chain of several): as the sequence (P07686 315-556 limits assumed, one chain of several) above
Sequence of human hexosaminidase A (P07686 122-311 limits assumed, one chain of several): as the sequence (P07686 122-311 limits assumed, one chain of several) above
Sequence of human hexosaminidase A (P07686 50-107 partner limits assumed, one chain of several): as the sequence (P07686 50-107 partner limits assumed, one chain of several) above
T3 sequence (P07686 315-556 limits assumed): as the sequence (P07686 315-556 limits assumed, one chain of several) above
T3 sequence (P07686 122-311 limits assumed): as the sequence (P07686 122-311 limits assumed, one chain of several) above
T3 sequence (P07686 50-107 partner limits assumed): as the sequence (P07686 50-107 partner limits assumed, one chain of several) above

For `CC(=O)NC1CN2CCC(O)C2C(O)C1O` (stereo not drawn) [ACAS, 6-acetamido-6-deoxy-castanospermine], the “hexosaminidase A activity” value is on record as “increased” in data set [1] (various concentrations of ACAS); “decreased” in data set [2] (ITSD fibroblasts, all concentrations); “not” in data set [2] (infantile Tay-Sachs cells, ACAS 4 days, MUGS); “increased” in data set [3] (various concentrations of ACAS); “decreased” in data set [4] (WT fibroblasts, all concentrations); “increased” in data set [4] (wild type cells, ACAS 4 days, MUGS).
On to `CC(=O)N[C@@H]1[C@@H](O)[C@@H](O)[C@@H](CO)O[C@H]1O` [GalNAc, N-acetyl-β-D-galactosamine], for which, in [5], the “concentration at which cell lysis occurred” value is above 200000 µM.
The Ki is the equilibrium dissociation constant of an inhibitor or competing ligand from its target. Regarding `CC1=NC2[C@@H](O)[C@@H](O)C(CO)O[C@H]2S1` (stereo partly drawn) [NAGal-thiazoline (2.6), N-acetyl galactosamine-thiazoline], the Ki in data set [6] is 100 µM. Also, the “mode of inhibition of hexosaminidase A” value in data set [7] is “competitive inhibitors”.
As to `CC1=NC2[C@@H](O)[C@H](O)C(CO)O[C@H]2S1` (stereo partly drawn) [NGT, N-acetylglucosamine-thiazoline], in [6], the Ki is 20 µM. For the same compound, the “plasma hexosaminidase A plus B (total Hex) level” value in [8] was “unchanged”. Besides, in data set [1] (NGT), the “hexosaminidase A and S activity” value is listed as “increased”. In data set [2] (ITSD cells), the “MUGS hydrolysis with increasing concentration” value is on record as “decline”. For the same compound, in data set [9] (setting [15]), the “acute or sub-acute toxicity” value is “No acute or sub-acute toxicity was observed” and the “histological examination of autopsied tissues” value is “no changes”. Moreover, in data set [9] (adult mice, 10, 40 or 100 mg i.p.), the signs of toxicity entry is on record as “None of the mice treated with inhibitors showed any signs of toxicity”. Moreover, in [10], the “brain hexosaminidase A plus B” value is on record as “essentially unchanged”. Moreover, in data set [11], the “protection of hexosaminidase B against denaturation by guanidine hydrochloride” value is “protect”. In addition, the “hexosaminidase B activity after heat denaturation versus control” value in data set [12] is “preserved greater hexosaminidase B activity than seen in the control”. Besides, the “activity of Hexosaminidase A/S (MUGS)” value in data set [3] (2 days, varying concentrations) is given as “increased”. The “hexosaminidase S activity” value in data set [3] (NGT) is given as “increased”. Further, the “plasma β-mannosidase level” value in data set [13] (CD1 mice, 10, 40 or 100 mg i.p., 2 days later) is given as “unchanged”. Further, the “serum βD mannosidase levels versus control” value in [13] (mice, 10, 40 or 100 mg i.p., 3 to 4 days after treatment) is given as “generally the same”. In data set [4] (WT fibroblasts, NGT 3 mM), the “increase in hexosaminidase A activity” value is recorded as “two fold”. Further, the “mode of inhibition of hexosaminidase A” value in data set [7] was “competitive inhibitors”.
On to `CC(=O)NC1NCCC(O)C1O` (stereo not drawn) [XylNAc-isofagomine•HCI (2.7), XylNAc-isofagomine•HCI], for which the Ki stood at 38 µM in data set [14] and 90 µM in data set [7] (read-out: Ki Hex A).
